Measurements reported in patent US5574026A, “Methods for inhibiting angiogenesis proliferation of endothelial or tumor cells and tumor growth” (American Cyanamid Company, priority 1994, dated 1996).
≈ marks a conversion by molar mass, not a printed value. Counter-ions that a name gives are not always drawn. Like-named read-outs stand apart in the source and are kept apart here.

Key:
Assay type in all cases: cell-based
[1] = system: Adult Bovine Aortic Endothelial (ABAE) cell line; assay: Antiproliferative activity in Adult Bovine Aortic Endothelial (ABAE) cell line, PROTOCOL 2 (48 h, sulforhodamine B); settings: Bos taurus, ABAE cells
Method: The antiproliferative activity of the compounds of Formula I in an Adult Bovine Aortic Endothelial (ABAE) cell line and in Human Tumor cells lines is evaluated in three similar assays that measure growth inhibition. The assays are identified as follows: PROTOCOLS 1, 2, and 3 are described in greater detail hereinbelow. In general, according to PROTOCOLS 1 and 2, the target ABAE and/or Human Tumor cells are exposed to the compounds of Formula I for 48 hours. PROTOCOL 3 exposes ABAE cells to the compounds for 4 days. A detailed description of the Protocols is as follows: All cell lines are maintained in log phase in RPMI 1640 media, supplemented with 5% fetal calf serum, penicillin/streptomycin and 2 mM L-glutamine. Cultures are renewed after 20 passages with cells from a fresh stock of batch-frozen early passage cells. Cell lines are routinely checked for mycoplasma contamination (Genprobe). In a laminar flow hood, cells (1-5×10^4) are plated into 96-well microtiter plates in a volume of 0.1 ml/well with a bulk microtiter dispenser (Denley). […] At this concentration, dimethylsulfoxide has no effect on cell growth. Compounds are added using a Tomtec dispenser which simultaneously dispenses from one 96-well plate, containing the drug dilutions, to the plates containing the cells. […] The number of cells on the plate are quantitated using a protein dye-binding assay (Monks et al., 1991). […] The optical densities are read from an automatic spectrophotometric plate reader (Dynatech) directly to a main frame computer (VAX 8600). PROTOCOL 2 Antiproliferative Activity in Human Tumor and Adult Bovine Aortic Endothelial Cell Lines (ABAE) The antiproliferative activity of the compounds of Formula I is evaluated in a panel comprised of human tumor cell lines as listed in Protocol 1 as well as an adult bovine aortic endothelial cell line (ABAE). […] Table 1 presents the results depicting the antiproliferative activity of the compounds of Formula I against an ABAE cell line, as evaluated by PROTOCOL 2 and PROTOCOL 3. […]

CACO2 = assay: Antiproliferative activity in human tumor cell lines, PROTOCOL 1 and PROTOCOL 2
Method: (§1) The antiproliferative activity of the compounds of Formula I in an Adult Bovine Aortic Endothelial (ABAE) cell line and in Human Tumor cells lines is evaluated in three similar assays that measure growth inhibition. The assays are identified as follows:
(§2) PROTOCOLS 1, 2, and 3 are described in greater detail hereinbelow. In general, according to PROTOCOLS 1 and 2, the target ABAE and/or Human Tumor cells are exposed to the compounds of Formula I for 48 hours. PROTOCOL 3 exposes ABAE cells to the compounds for 4 days. A detailed description of the Protocols is as follows:
(§3) Antiproliferative Activity in Human Tumor Cell Lines
(§4) The antiproliferative activity of the compounds of Formula I of the present invention is evaluated in a panel comprised of human tumor cell lines. The human tumor cell lines are from
(§5) 2) Colon tumors: MIP, CACO2, and SW620.
(§6) All cell lines are maintained in log phase in RPMI 1640 media, supplemented with 5% fetal calf serum, penicillin/streptomycin and 2 mM L-glutamine. Cultures are renewed after 20 passages with cells from a fresh stock of batch-frozen early passage cells. Cell lines are routinely checked for mycoplasma contamination (Genprobe). In a laminar flow hood, cells (1-5×10^4) are plated into 96-well microtiter plates in a volume of 0.1 ml/well with a bulk microtiter dispenser (Denley). […] At this concentration, dimethylsulfoxide has no effect on cell growth. Compounds are added using a Tomtec dispenser which simultaneously dispenses from one 96-well plate, containing the drug dilutions, to the plates containing the cells. After two days of continuous drug exposure, 50% cold trichloroacetic acid (TCA) is added to 10% final concentration to fix the cells, and after 60 minutes at 4° C., the TCA is aspirated and the plates are washed 5 times with deionized water using a microtiter plate washer. The number of cells on the plate are quantitated using a protein dye-binding assay (Monks et al., 1991). A 0.4% solution of the dye, sulforhodamine B, in […] is added to the plates, and the plates are washed 5 times with 1% glacial acetic acid using the automatic plate washed. The bound stain is solubilized with 0.1 ml of 10 mMTris base. The optical densities are read from an automatic spectrophotometric plate reader (Dynatech) directly to a main frame computer (VAX 8600).
(§7) Positive controls, that include standard chemotherapeutic drugs (i.e., adriamycin, cisplatin, etc.), are included in every experiment.
(§8) Background optical density measurements (complete media--cells, and complete media+drug-cells) are automatically subtracted from the appropriate control and test wells. Mean values and standard errors are determined from duplicate wells. A measure is also made of the optical density at time when the drugs are added. The number of cells after treatment (P), as % of control, is calculated for every concentration of drug, as follows: [formula] wherein: T is optical density measurement for treated cells after 48 hours;
(§9) C is optical density measurement for untreated cells after 48 hours;
(§10) Co is optical density measurement for cells at the time of drug addition.
(§11) IC50 of Growth inhibition is calculated from the sets of P values using the RS-1 data package (BBN Software).
(§12) Antiproliferative Activity in Human Tumor and Adult Bovine Aortic Endothelial Cell Lines (ABAE)
(§13) The antiproliferative activity of the compounds of Formula I is evaluated in a panel comprised of human tumor cell lines as listed in Protocol 1 as well as an adult bovine aortic endothelial cell line (ABAE). This assay is a modification of PROTOCOL 1. The modifications include:
(§14) 1) each concentration for each compound is tested in a single well;
(§15) 2) compounds are tested at 20, 4, 0.8, 0.16 microgram/ml and additionally in some experiments at 100 and 0.32 microgram/ml;
(§16) 3) samples are pipetted into a 96-well plate for each of the cell lines by a Beckman Biomek 1000 SL robot; […]

MIP = assay: as above; settings: colon tumor cell line MIP, 48 hours
Method: as §1, §2, §3, §4, §5, §6, §7, §8, §9, §10, §11, §12, §13, §14, §15, §16

[2] = Caco-2, colon tumor cell line CACO2, 48 hours, read-out: IC50

| Structure (SMILES) | IC50 [1] [µg/mL] | IC50 (CACO2; [2]) [µg/mL] | IC50 (MIP) [µg/mL] | IC50 (CACO2; Caco-2, 48 h) [µg/mL] |
| --- | --- | --- | --- | --- |
| CN(C)c1ccc(O)c2c1C[C@H]1C[C@H]3[C@H](N(C)C)C(O)=C(C(N)=O)C(=O)[C@@]3(O)C(O)=C1C2=O [Minocycline, reference compound] | > 20 | 9 (≈ 19.7 µM) | 6.1 (≈ 13.3 µM) | – |
| CN(C)[C@@H]1C(O)=C(C(N)=O)C(=O)[C@@]2(O)C(O)=C3C(=O)c4c(O)ccc(I)c4CC3CC12 (stereo partly drawn) [Example 10, [4S-(4α,12aα)]-4-(Dimethylamino)-4,4,4a,5,5a,6,11,12a-octahydro-3,10,12,12a-tetrahydroxy-7-iodo-1,11-dioxo-2-naphthacenecarboxamide] | 5 (≈ 9.25 µM) | – | 0.8 (≈ 1.48 µM) | 2.8 (≈ 5.18 µM) |
| CN(C)[C@@H]1C(O)=C(C(N)=O)C(=O)[C@@]2(O)C(O)=C3C(=O)c4c(O)ccc(Br)c4CC3CC12 (stereo partly drawn) [Example 8, [4S-(4α,12aα)]-7-Bromo-4-(dimethylamino)-1,4,4a,5,5a,-6,11,12a-octahydro-3,10,12,12a-tetrahydroxy-1,11-dioxo-2-naphthacenecarboxamide sulfate] | 2.4 | 2.4 | 2 | – |
